Paper PMC7377239, “Cardiovascular Effects of Polychlorinated Biphenyls and Their Major Metabolites” (Environmental Health Perspectives, 2020)
Read-outs that look alike come from different tables or passages of the source.

Tests used:
HUVECs = experiment: High-content imaging cytotoxicity in HUVECs, 24 h; format: cell-based, human; settings: Homo sapiens, HUVEC, 24 h, HUVECs; for viability at 0.01 µM / activity at 0.01 µM / viability at 0.1 µM / activity at 0.1 µM / viability at 1 µM / activity at 1 µM / viability at 10 µM / activity at 10 µM / viability at 100 µM / activity at 100 µM: 0.00 µM = 100.00; for viability at 0.1 µM / activity at 0.1 µM: 0.10 µM; for minimal effective concentration: top concentration 100.00 µM
Summary of the method: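 HUVECs (passages 1–5) grown to monolayer over 3–5 d, then exposed 24 h at 37°C, 5% CO2; stained with Hoechst 33342, MitoTracker Orange and calcein AM and imaged at 10×. Readouts normalized to 0.5% DMSO vehicle, four-parameter logistic fit; POD at one-SD cutoff, 100μM assigned when no response.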

[1] = system: iCell cardiomyocytes (human iPSC-derived cardiomyocytes); experiment: High-content imaging of cytotoxicity and mitochondrial integrity in iPSC-CMs; format: cell-based; settings: Homo sapiens; for viability at 0.01 µM / activity at 0.01 µM / viability at 0.1 µM / activity at 0.1 µM / viability at 1 µM / activity at 1 µM / viability at 10 µM / activity at 10 µM / viability at 100 µM / activity at 100 µM: Cardiomyocyte, 0.00 µM = 100.00; for viability at 0.1 µM / activity at 0.1 µM: 0.10 µM; for minimal effective concentration: iPSC-CM
Summary of the method: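 Readouts from high-content images were normalized to vehicle controls containing 0.5% vol/vol DMSO. They were fit to a four-parameter logistic model in R. Points of departure were set using a cutoff of one standard deviation across vehicle control means. Where no concentration–response was seen, the top tested concentration of 100μM was assigned as the no observable adverse effect level.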

[2] = 24 hr, read-out: huvec.cyto.24hr
[3] = 24 hr, read-out: huvec.mito.24hr
[4] = 24 hr, read-out: huvec.mitoint.24hr
[5] = 24 hr, read-out: huvec.nma.24hr
[6] = 24 hrs, read-out: huvec.tc.24hrs

In the case of `Clc1cccc(-c2cccc(Cl)c2)c1` [PCB11], the viability at 0.01 µM (HUVECs; [2]) is reported as 91.9%, the activity at 0.01 µM (HUVECs; [3]) is reported as 90.9% and the activity at 0.01 µM (HUVECs; [4]) is reported as 90.3%. The activity at 0.01 µM (HUVECs; [5]) was 99.1%, the viability at 0.1 µM (HUVECs; [2]) was 99.2% and the activity at 0.1 µM (HUVECs; [3]) was 97.8%. For the same compound, the activity at 0.1 µM (HUVECs; [4]) was 99.8%, the activity at 0.1 µM (HUVECs; [5]) was 99.1% and the viability at 1 µM (HUVECs; [2]) was 96.6%. For the same compound, the activity at 1 µM (HUVECs; [3]) was 96.2%, the activity at 1 µM (HUVECs; [4]) was 95.2% and the activity at 1 µM (HUVECs; [5]) was 98.1%. The viability at 10 µM (HUVECs; [2]) was 95%, the activity at 10 µM (HUVECs; [3]) was 93.9% and the activity at 10 µM (HUVECs; [4]) was 89.1%. It also gave an activity at 10 µM (HUVECs; [5]) of 96.6%, a viability at 100 µM (HUVECs; [2]) of 44.7% and an activity at 100 µM (HUVECs; [3]) of 22.1%. It also gave an activity at 100 µM (HUVECs; [4]) of 15.7%, an activity at 100 µM (HUVECs; [5]) of 54.9% and a minimal effective concentration (HUVECs; 24 hr, read-out: huvec.cyto.24hr POD) of 11.2 µM. It also gave a minimal effective concentration (HUVECs; 24 hr, read-out: huvec.mito.24hr POD) of 9.68 µM, a minimal effective concentration (HUVECs; 24 hr, read-out: huvec.mitoint.24hr POD) of 7.62 µM and a minimal effective concentration (HUVECs; 24 hr, read-out: huvec.nma.24hr POD) of 9.3 µM. It also gave a viability at 0.01 µM (HUVECs; [6]) of 91.9%, a viability at 0.1 µM (HUVECs; [6]) of 99.2% and a viability at 1 µM (HUVECs; [6]) of 96.6%. It also gave a viability at 10 µM (HUVECs; [6]) of 95%, a viability at 100 µM (HUVECs; [6]) of 44.9% and a minimal effective concentration (HUVECs; 24 hrs, read-out: huvec.tc.24hrs POD) of 11.2 µM. For the same compound, the viability at 0.01 µM ([1]; 1.5 h, read-out: cm.cam.90min) was 99%, the activity at 0.01 µM ([1]; 1.5 h, read-out: cm.mii.90min) was 116% and the activity at 0.01 µM ([1]; 1.5 h, read-out: cm.mito.90min) was 99.1%. The viability at 0.01 µM ([1]; 1.5 h, read-out: cm.tc.90min) was 99%, the viability at 0.1 µM ([1]; 1.5 h, read-out: cm.cam.90min) was 97.7% and the activity at 0.1 µM ([1]; 1.5 h, read-out: cm.mii.90min) was 102%. For the same compound, the activity at 0.1 µM ([1]; 1.5 h, read-out: cm.mito.90min) was 97.7%, the viability at 0.1 µM ([1]; 1.5 h, read-out: cm.tc.90min) was 97.7% and the viability at 1 µM ([1]; 1.5 h, read-out: cm.cam.90min) was 101%. It also gave an activity at 1 µM ([1]; 1.5 h, read-out: cm.mii.90min) of 98.3%, an activity at 1 µM ([1]; 1.5 h, read-out: cm.mito.90min) of 101% and a viability at 1 µM ([1]; 1.5 h, read-out: cm.tc.90min) of 101%. It also gave a viability at 10 µM ([1]; 1.5 h, read-out: cm.cam.90min) of 99.5%, an activity at 10 µM ([1]; 1.5 h, read-out: cm.mii.90min) of 105% and an activity at 10 µM ([1]; 1.5 h, read-out: cm.mito.90min) of 99.5%. It also gave a viability at 10 µM ([1]; 1.5 h, read-out: cm.tc.90min) of 99.3%, a viability at 100 µM ([1]; 1.5 h, read-out: cm.cam.90min) of 1.03% and an activity at 100 µM ([1]; 1.5 h, read-out: cm.mii.90min) of 152%. The activity at 100 µM ([1]; 1.5 h, read-out: cm.mito.90min) was 0.83%, the viability at 100 µM ([1]; 1.5 h, read-out: cm.tc.90min) was 1.06% and the viability at 0.01 µM ([1]; 24 h, read-out: cm.cam.24hrs) was 103%. For the same compound, the activity at 0.01 µM ([1]; 24 h, read-out: cm.mii.24hrs) was 93.5%, the activity at 0.01 µM ([1]; 24 h, read-out: cm.mito.24hrs) was 102% and the viability at 0.01 µM ([1]; 24 h, read-out: cm.tc.24hrs) was 102%. The viability at 0.1 µM ([1]; 24 h, read-out: cm.cam.24hrs) was 99.5%, the activity at 0.1 µM ([1]; 24 h, read-out: cm.mii.24hrs) was 93% and the activity at 0.1 µM ([1]; 24 h, read-out: cm.mito.24hrs) was 98.7%. For the same compound, the viability at 0.1 µM ([1]; 24 h, read-out: cm.tc.24hrs) was 99.3%, the viability at 1 µM ([1]; 24 h, read-out: cm.cam.24hrs) was 101% and the activity at 1 µM ([1]; 24 h, read-out: cm.mii.24hrs) was 93.7%. The activity at 1 µM ([1]; 24 h, read-out: cm.mito.24hrs) was 98.5%, the viability at 1 µM ([1]; 24 h, read-out: cm.tc.24hrs) was 101% and the viability at 10 µM ([1]; 24 h, read-out: cm.cam.24hrs) was 103%. For the same compound, the activity at 10 µM ([1]; 24 h, read-out: cm.mii.24hrs) was 85.7%, the activity at 10 µM ([1]; 24 h, read-out: cm.mito.24hrs) was 102% and the viability at 10 µM ([1]; 24 h, read-out: cm.tc.24hrs) was 103%. The viability at 100 µM ([1]; 24 h, read-out: cm.cam.24hrs) was 0.64%, the activity at 100 µM ([1]; 24 h, read-out: cm.mii.24hrs) was 31.3% and the activity at 100 µM ([1]; 24 h, read-out: cm.mito.24hrs) was 0.24%. For the same compound, the viability at 100 µM ([1]; 24 h, read-out: cm.tc.24hrs) was 0.62%, the minimal effective concentration ([1]; 1.5 h, read-out: cm.cam.90min POD) was 18.6 µM and the minimal effective concentration ([1]; 1.5 h, read-out: cm.mii.90min POD) was 12.4 µM. The minimal effective concentration ([1]; 1.5 h, read-out: cm.mito.90min POD) was 14.2 µM, the minimal effective concentration ([1]; 1.5 h, read-out: cm.tc.90min POD) was 16.7 µM and the minimal effective concentration ([1]; 24 h, read-out: cm.cam.24hrs POD) was 35.2 µM. For the same compound, the minimal effective concentration ([1]; 24 h, read-out: cm.mii.24hrs POD) was 9.6 µM, the minimal effective concentration ([1]; 24 h, read-out: cm.mito.24hrs POD) was 33.1 µM and the minimal effective concentration ([1]; 24 h, read-out: cm.tc.24hrs POD) was 35.1 µM.
